Measured values as given in patent US7344829B2, “Methods for detecting the efficacy of anticancer treatments” (Board of Regents, the University of Texas System, priority 2000, dated 2008).

Key:
[1] = test system: L3.6pl human pancreatic cancer cells
From the text: Animals and Orthotopic Implantation of Tumor Cells. Male athymic nude mice (NCr-nu) were purchased from the Animal Production Area of the National Cancer Institute-Frederick Cancer Research and Development Center (Frederick, Md.). The mice were housed and maintained in laminar flow cabinets under specific pathogen-free conditions in facilities approved by the American Association for Accreditation of Laboratory Animal Care and in accordance with current regulations and standards of the U. S. Department of Agriculture, U.S. Department of Health and Human Services, and the National Institutes of Health. The mice were used in accordance with institutional guidelines when they were 8 to 12 wk old.
Orthotopic Implantation of Tumor Cells. To produce tumors, L3.6pl cells were harvested from subconfluent cultures by a brief exposure to 0.25% trypsin and 0.02% EDTA. Trypsinization was stopped with medium containing 10% FBS, and the cells were washed once in serum-free medium and resuspended in HBSS. Only suspensions consisting of single cells with greater than 90% viability were used for the injections. Cells were injected into the pancreas as described previously. The mice were killed when moribund (5–6 wk). The size and weight of the primary pancreatic tumors, the incidence of regional (celiac and paraaortal) lymph node metastasis, and the number of liver metastases were recorded. Histopathology confirmed the nature of the disease.
Therapy of Established Human Pancreatic Carcinoma Tumors Growing in the Pancreas of Athymic Nude Mice. Seven days after implantation of tumor cells into the pancreas, 5 mice were killed and the presence of tumor lesions was determined. At this time, the median tumor volume was 18 mm^3. Histological examination confirmed the lesions to be actively growing pancreatic cancer.
Necropsy Procedures and Histological Studies. Mice were euthanized and the body weight was determined. Primary tumors in the pancreas were excised and weighed. […] Visible liver metastases were counted with the aid of a dissecting microscope and processed for H&E staining. All macroscopically enlarged regional (celiac and paraaortal) lymph nodes were harvested, and the presence of metastatic disease was confirmed by histology.

[2] = biological target: T1, phosphorylated (activated) EGF-R (Mus musculus, UniProt Q01279); assay: Activated EGF-R in UV-2237 fibrosarcoma tumors and skin/hair follicles of mice (immunohistochemistry); assay type: in vivo, C3H/HeN mice; conditions: 6 administrations
T1 construct: from tissue; host or cells: UV-2237 fibrosarcoma tumours and dorsal skin/hair follicles of C3H/HeN mice
Experimental: C3H/HeN mice were injected subcutaneously with UV-2237 fibrosarcoma cells. Seven days after the implantation, the mice were given 3 weekley oral administrations of PBS, 10 mg/kg PKI166, 50 mg/kg PKI166, and 100 mg/kg PKI166. The mice were killed on day 15 of treatment (6 oral administrations), i.e., one day after the last oral administration.
The tumors were harvested and processed for immunohistochemistry. The contralateral dorsal skin and hair were excised and prepare for immunohistochemistry. The tumors and skin/hair samples were sectioned and stained with antibodies against the EGF-R and antibodies against the phosphorylated (activated) EGF-R. The results are shown in FIG. 8.

Tek = biological target: T2, Tek (Homo sapiens, UniProt Q02763); assay: GST-fused kinase domain assay, Tek; assay type: biochemical
T2 construct: GST-fused kinase domains of Kdr, Flt-1, Flk, Tek, c-Met, and c-Kit were expressed in baculovirus; GST; made in house
Experimental: (§1) GST-fused kinase domains of Kdr, Flt-1, Flk, Tek, c-Met, and c-Kit were expressed in baculovirus and purified over glutathione-Sepharose. Kinase inhibition was measured by detecting the decrease in phosphorylation of poly(Glu,Tyr 4:1) essentially as previously described for EGF-R. Each kinase was incubated under optimized buffer conditions in 20 mM Tris-HCl, pH 7.5, 1–3 mM MnCl2, 3–10 mM MgCl2, 10 μM Na3VO4, 1 mM DTT, 0.2 μCi/[γ-^33P]ATP, 1–8 μM ATP, 3–8 μg/ml poly(Glu,Tyr 4:1), 1% DMSO in a total volume of 30 μl in the presence or absence of PKI166 for 10 min at ambient temperature. Reactions were terminated by adding 10 μl of 250 mM EDTA, and the reaction mixture was transferred onto an Immobilon-PVDG membrane (Millipore, Bedford, Mass.). Following a washing (0.5% H3PO4), a soaking in EtOH, and drying, filters were counted in a liquid scintillation counter. IC50 values for PKI166 were calculated by linear regression analysis of the percentage inhibition. Inhibition of Cdc2/cyclin B protein kinase (Arion et al. 1988; Partanen et al. 1991) and PKC (McGlynn et al. 1992b) was assayed as previously described.

EGF-R-ICD = biological target: T3, EGF-R-ICD (Homo sapiens, UniProt P00533); assay: In vitro kinase filter binding assay, EGF-R intracellular kinase domain; assay type: biochemical
T3 construct: EGF-R intracellular kinase domain (EGF-R-ICD) was assayed in 20 mM Tris-HCl
Experimental: (§2) Preparation of Enzymes and Kinase Assays. In vitro enzyme assays using EGF-R (McGlynn et al. 1992a), Abl (Geissler et al. 1992), and c-Src (Geissler et al. 1990) protein tyrosine kinases were performed in 96-well plates as a filter binding assay. Briefly, EGF-R intracellular kinase domain (EGF-R-ICD) was assayed in 20 mM Tris-HCl, pH 7.5, 10 mM MnCl2, 10 μM Na3VO4, 1 mM DTT, 0.1 μCi/assay [γ-^33P]ATP, 0.4 μM ATP, 2 μ/ml poly(Glu,Tyr 4:1) (Sigma P275), 1% DMSO, and 30 ng EGF-R-ICD in a total volume of 30 μl. The His-tagged kinase domain of c-Abl was cloned and expressed in the baculovirus/Sf9 system as described previously (Bhat et al. 1997) and assayed in 20 mM Tris-HCl, pH 7.5, 10 mM MgCl2, 10 μM Na3VO4, 1 mM DTT, 0.06 μCi/assay (=30 μl ) [γ-^32P]ATP, 5 μM ATP, 30 μg/ml poly(Ala,Glu,Lys,Tyr 6:2:5:1) (Sigma P1152), 1% DMSO, and 50 ng c-Abl enzyme. Src kinase (60 μg/ml) was preactivated with 50 μM ATP for 10 min at room temperature, and kinase inhibition was measured in 20 mM Tris-HCl, pH 7.5, 10 mM MgCl2, 10 μM Na3VO4, 1 mM DTT, 0.1 μCi/assay (=30 μl ) [γ-^33P]ATP, 20 μM ATP, 25 μg/ml poly(Glu,Tyr 4:1), 1% DMSO, and 10 ng c-Src enzyme.
as §1

c-Abl = biological target: T4, c-Abl (Homo sapiens, UniProt P00519); assay: In vitro kinase filter binding assay, c-Abl kinase domain; assay type: biochemical; conditions: c-Abl tyrosine kinase
T4 construct: The His-tagged kinase domain of c-Abl was cloned and expressed in the baculovirus/Sf9 system; His; made in house; host or cells: baculovirus/Sf9
T4 sequence (P00519 242-493 limits assumed): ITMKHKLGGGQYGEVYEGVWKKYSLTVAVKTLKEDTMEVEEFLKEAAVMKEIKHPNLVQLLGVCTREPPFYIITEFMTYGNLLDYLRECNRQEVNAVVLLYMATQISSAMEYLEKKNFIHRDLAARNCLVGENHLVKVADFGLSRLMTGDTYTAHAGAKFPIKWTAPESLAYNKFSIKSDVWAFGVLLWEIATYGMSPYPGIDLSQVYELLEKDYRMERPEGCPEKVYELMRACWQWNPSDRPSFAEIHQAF
Experimental: as §2, with “The His-tagged kinase domain of c-Abl was cloned and expressed in the baculovirus/Sf9 system as described previously (Bhat et al. 1997) and assayed in 20 mM Tris-HCl, pH 7.5, 10 mM MgCl2, 10 μM Na3VO4, 1 mM DTT, 0.06 μCi/assay (=30 μl ) [γ-^32P]ATP, 5 μM ATP, 30 μg/ml poly(Ala,Glu,Lys,Tyr 6:2:5:1) (Sigma P1152), 1% DMSO, and 50 ng c-Abl enzyme.” left out
GST-fused kinase domains of Kdr, Flt-1, Flk, Tek, c-Met, and c-Kit were expressed in baculovirus and purified over glutathione-Sepharose. Kinase inhibition was measured by detecting the decrease in phosphorylation of poly(Glu,Tyr 4:1) essentially as previously described for EGF-R. Each kinase was incubated under optimized buffer conditions in 20 mM Tris-HCl, pH 7.5, 1–3 mM MnCl2, 3–10 mM MgCl2, 10 μM Na3VO4, 1 mM DTT, 0.2 μCi/[γ-^33P]ATP, 1–8 μM ATP, 3–8 μg/ml poly(Glu,Tyr 4:1), 1% DMSO in a total volume of 30 μl in the presence or absence of PKI166 for 10 min at ambient temperature. […]

T3 sequence (P00533 669-1210 limits assumed): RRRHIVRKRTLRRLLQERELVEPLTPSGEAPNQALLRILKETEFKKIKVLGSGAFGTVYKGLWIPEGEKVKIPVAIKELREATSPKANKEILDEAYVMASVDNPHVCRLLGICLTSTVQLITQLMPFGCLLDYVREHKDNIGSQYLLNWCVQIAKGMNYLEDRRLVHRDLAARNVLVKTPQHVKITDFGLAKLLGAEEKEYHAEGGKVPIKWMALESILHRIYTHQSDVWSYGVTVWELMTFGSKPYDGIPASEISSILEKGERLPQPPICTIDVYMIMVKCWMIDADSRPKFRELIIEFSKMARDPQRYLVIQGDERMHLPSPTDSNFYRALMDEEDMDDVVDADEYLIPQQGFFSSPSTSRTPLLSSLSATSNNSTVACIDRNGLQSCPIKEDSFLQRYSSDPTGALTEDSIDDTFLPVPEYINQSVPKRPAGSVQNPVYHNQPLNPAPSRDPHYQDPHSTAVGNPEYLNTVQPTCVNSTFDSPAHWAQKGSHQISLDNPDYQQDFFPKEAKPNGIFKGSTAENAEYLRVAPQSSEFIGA
T2 sequence (Q02763 824-1096 limits assumed, species assumed): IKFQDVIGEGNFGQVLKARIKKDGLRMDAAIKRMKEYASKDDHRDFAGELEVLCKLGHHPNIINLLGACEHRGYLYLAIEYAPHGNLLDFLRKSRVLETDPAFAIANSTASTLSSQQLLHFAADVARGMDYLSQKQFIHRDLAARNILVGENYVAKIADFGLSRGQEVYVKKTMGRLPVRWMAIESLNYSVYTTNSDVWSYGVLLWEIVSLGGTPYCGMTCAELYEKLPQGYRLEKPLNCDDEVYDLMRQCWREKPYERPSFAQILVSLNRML

`C[C@@H](Nc1ncnc2[nH]c(-c3ccc(O)cc3)cc12)c1ccccc1` [PKI166, 4-(R)-phenethylamino-6-(hydroxyl) phenyl-7H-pyrrolo[2.3-d]-pyrimidine] was tested, and the “Histologically positive regional lymph node metastases, share of animals” value ([1]; day 35) was 90%, the “Reduction of growth of primary pancreatic neoplasms” value ([1]; human pancreatic carcinoma in pancreas of nude mice) was 45% and the “Tolerability as determined by maintenance of body weight” value ([1]; mouse, in vivo, po, 100 mg/kg) was “well tolerated”. For the same compound, the “Expression of activated EGF-R in tumors or skin/hair follicles” value ([2]; oral 10 mg/kg) was “did not decrease”, the “Phosphorylation of EGF-R in tumors and skin/hair follicles” value ([2]; oral 50 mg/kg or 100 mg/kg) was “inhibited phosphorylation” and the IC50 (Tek) was greater than 1000 nM. For the same compound, the “mode of inhibition of EGF-R kinase” value (EGF-R-ICD; enzyme kinetic studies) was “ATP-competitive inhibition”, the IC50 (EGF-R-ICD; intracellular domain (ICD) of the EGF-R kinase) was 0.7 nM and the “selectivity factor for inhibition of the EGF-R ICD” value (EGF-R-ICD; versus other tyrosine kinases (Traxler et al. 1999)) was greater than 40. For the same compound, the selectivity ratio (EGF-R-ICD; with respect to inhibition of serine/threonine kinases PKC-α and Cdc2/cyclin B) was greater than 3000 and the IC50 (c-Abl) was 28 nM.
